Here are results for 25 molecules from patent publication US20170121315A1, “HETEROBICYCLICALLY SUBSTITUTED 4-OXOBUTANE ACID DERIVATIVES AND USE THEREOF” (priority 2014, published 2017).

Each structure is given as a SMILES string.

In the assay the target is T1, human macrophage elastase (HME/hMMP-12) (Homo sapiens, UniProt P39900).
T1 construct: purchased R&D Systems 917-MP
T1 sequence (P39900 106-470): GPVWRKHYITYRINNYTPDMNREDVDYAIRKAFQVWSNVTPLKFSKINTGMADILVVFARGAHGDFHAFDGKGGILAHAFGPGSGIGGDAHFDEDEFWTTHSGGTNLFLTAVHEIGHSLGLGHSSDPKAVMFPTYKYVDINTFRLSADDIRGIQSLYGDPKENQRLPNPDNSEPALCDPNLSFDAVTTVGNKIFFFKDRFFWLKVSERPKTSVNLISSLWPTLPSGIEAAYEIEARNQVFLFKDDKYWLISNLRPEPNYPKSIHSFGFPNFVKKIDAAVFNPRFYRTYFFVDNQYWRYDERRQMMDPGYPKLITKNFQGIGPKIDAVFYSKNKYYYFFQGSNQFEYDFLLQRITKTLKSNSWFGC
As to the kind of experiment: In vitro HME inhibition test (standard or high-sensitivity). The following applies: in some cases mean values, rounded to two significant figures. It counts as biochemical. The procedure:
The potency of the compounds according to the invention with respect to HME (MMP-12) is determined in an in vitro inhibition test. The HME-mediated amidolytic cleavage of a suitable peptide substrate leads to an increase in fluorescent light therein. The signal intensity of the fluorescent light is directly proportional to the enzyme activity. The active concentration of a test compound at which half the enzyme is inhibited (50% signal intensity of the fluorescent light) is reported as the IC50 value.
In a 384 hole microtiter plate, in a total test volume of 41 μl, the test buffer (0.1 M HEPES pH 7.4, 0.15 M NaCl, 0.03 M CaCl2, 0.004 mM ZnCl2, 0.02 M EDTA, 0.005% Brij®), the enzyme (0.5 nM HME; R&D Systems, 917-MP, autocatalytic activation according to the manufacturer's instructions) and the intramolecularly quenched substrate [5 μM Mca-Pro-Leu-Gly-Leu-Glu-Glu-Ala-Dap(Dnp)-NH2; Bachem, M-2670] are incubated in the absence and presence of the test substance (as a solution in DMSO) at 37° C. for two hours. The fluorescence intensity of the test mixtures is measured (excitation […], emission 393 nm). The IC50 values are ascertained by plotting the fluorescent light intensity against the active ingredient concentration.
In this case, an enzyme concentration ten times lower is used (final concentration, e.g. 0.05 nM) in order to achieve an increased test sensitivity. The incubation period chosen for the test is correspondingly longer (e.g. 16 hours).
As to `CCCOc1ccc2cc(C(=O)CC(CCn3nnc4ccccc4c3=O)C(=O)O)sc2c1` (racemic) [Example 116, (+/−)-4-Oxo-2-[2-(4-oxo-1,2,3-benzotriazin-3(4H)-yl)ethyl]-4-(6-propoxy-1-benzothiophen-2-yl)butanoic acid], half-maximal inhibition (IC50) required 4.2 nM. With `O=C(O)[C@@H]1[C@@H](Cn2nnc3ccc(C(F)(F)F)cc3c2=O)CC[C@H]1C(=O)c1cc2cc(OCCc3ccccc3)ccc2o1` (single isomer, unassigned; enantiomer 1) [Example 158, (−)-(1RS,2SR,5RS)-2-{[4-Oxo-6-(trifluoromethyl)-1,2,3-benzotriazin-3(4H)-yl]methyl}-5-{[5-(2-phenylethoxy)-1-benzofur-2-yl]carbonyl}cyclopentanecarboxylic acid (enantiomer 1)] the figure was 260 nM; with `CCCCCCCOc1ccc2c(C(=O)CC(CCn3nnc4ccccc4c3=O)C(=O)O)coc2c1` (single isomer, unassigned; (-)) [Example 102, (−)-4-[6-(Heptyloxy)-1-benzofur-3-yl]-4-oxo-2-[2-(4-oxo-1,2,3-benzotriazin-3(4H)-yl)ethyl]butanoic acid], 2100 nM. With `CC(C)CCCCOc1ccc2oc(C(=O)CC(CCn3nnc4ccccc4c3=O)C(=O)O)cc2c1` (racemic) [Example 41, (+/−)-4-{5-[(5-Methylhexyl)oxy]-1-benzofur-2-yl}-4-oxo-2-[2-(4-oxo-1,2,3-benzotriazin-3(4H)-yl)ethyl]butanoic acid] the figure was 3.9 nM; with `O=C(CC(CCn1nnc2ccccc2c1=O)C(=O)O)c1cc2cc(OCc3ccccc3)ccc2o1` (racemic) [Example 28, (+/−)-4-[5-(Benzyloxy)-1-benzofur-2-yl]-4-oxo-2-[2-(4-oxo-1,2,3-benzotriazin-3(4H)-yl)ethyl]butanoic acid], 3.1 nM; with `O=C(CC(CCn1nnc2ccccc2c1=O)C(=O)O)c1noc2cc(OCc3cccc(Cl)c3)ccc12` (racemic) [Example 146, (+/−)-4-{6-[(3-Chlorobenzyl)oxy]-1,2-benzoxazol-3-yl}-4-oxo-2-[2-(4-oxo-1,2,3-benzotriazin-3(4H)-yl)ethyl]butanoic acid], 1.1 nM. Consider `O=C(CC(CCn1nnc2ccccc2c1=O)C(=O)O)c1cc2cc(OCC3CCCC3)ccc2o1` (single isomer, unassigned; enantiomer 2) [Example 18, (+)-4-[5-(Cyclopentylmethoxy)-1-benzofur-2-yl]-4-oxo-2-[2-(4-oxo-1,2,3-benzotriazin-3(4H)-yl)ethyl]butanoic acid (enantiomer 2)], for which the midpoint of inhibition, the IC50, lay at 6 nM.

As to `O=C(CC(CCn1nnc2ccccc2c1=O)C(=O)O)c1coc2cc(OCC3CCOCC3)ccc12` (single isomer, unassigned; (+)) [Example 96, (+)-4-Oxo-2-[2-(4-oxo-1,2,3-benzotriazin-3(4H)-yl)ethyl]-4-[6-(tetrahydro-2H-pyran-4-ylmethoxy)-1-benzofur-3-yl]butanoic acid], the half-inhibitory concentration (IC50) – broadly, the point on the concentration scale where inhibition reaches its midpoint – amounted to 0.81 nM. Consider `O=C(CC(CCn1nnc2ccccc2c1=O)C(=O)O)c1coc2cc(OCCc3ccccc3)ccc12` (racemic) [Example 110, (+/−)-4-Oxo-2-[2-(4-oxo-1,2,3-benzotriazin-3(4H)-yl)ethyl]-4-[6-(2-phenylethoxy)-1-benzofur-3-yl]butanoic acid], for which the half-inhibitory concentration (IC50) is 0.54 nM.

For the molecule `O=C(CC(CCn1nnc2ccccc2c1=O)C(=O)O)c1noc2cc(OCCC3CCCCC3)ccc12` (single isomer, unassigned; enantiomer 2) [Example 143, (+)-4-[6-(2-Cyclohexylethoxy)-1,2-benzoxazol-3-yl]-4-oxo-2-[2-(4-oxo-1,2,3-benzotriazin-3(4H)-yl)ethyl]butanoic acid (enantiomer 2)], the IC50 was found to be 0.019 nM. With `CCOc1ccc2cc(C(=O)CC(CCn3nnc4ccccc4c3=O)C(=O)O)sc2c1` (racemic) [Example 127, (+/−)-4-(6-Ethoxy-1-benzothiophen-2-yl)-4-oxo-2-[2-(4-oxo-1,2,3-benzotriazin-3(4H)-yl)ethyl]butanoic acid] the figure was 2.8 nM; with `O=C(CC(CCn1nnc2ccccc2c1=O)C(=O)O)c1coc2cc(OCC3CCCC3)ccc12` (single isomer, unassigned; (-)) [Example 79, (−)-4-[6-(Cyclopentylmethoxy)-1-benzofur-3-yl]-4-oxo-2-[2-(4-oxo-1,2,3-benzotriazin-3(4H)-yl)ethyl]butanoic acid], 1900 nM; with `O=C(CC(CCn1nnc2ccccc2c1=O)C(=O)O)c1coc2cc(OCc3ccc(Cl)c(Cl)c3)ccc12` (single isomer, unassigned) [Example 93, 4-{6-[(3,4-Dichlorobenzyl)oxy]-1-benzofur-3-yl}-4-oxo-2-[2-(4-oxo-1,2,3-benzotriazin-3(4H)-yl)ethyl]butanoic acid], 97 nM.

For `COc1cccc(C(=O)COc2ccc3cc(C(=O)CC(CCn4nnc5ccccc5c4=O)C(=O)O)sc3c2)c1` (racemic) [Example 124, (+/−)-4-{6-[2-(3-Methoxyphenyl)-2-oxoethoxy]-1-benzothiophen-2-yl}-4-oxo-2-[2-(4-oxo-1,2,3-benzotriazin-3(4H)-yl)ethyl]butanoic acid], the IC50 is 0.95 nM. Molecule `CCCCOc1ccc2c(C(=O)CC(CCn3nnc4ccccc4c3=O)C(=O)O)coc2c1` (single isomer, unassigned; (+)) [Example 108, (+)-4-(6-Butoxy-1-benzofur-3-yl)-4-oxo-2-[2-(4-oxo-1,2,3-benzotriazin-3(4H)-yl)ethyl]butanoic acid] gave an IC50 of 0.23 nM. With `CC(C)COc1ccc2c(C(=O)CC(CCn3nnc4ccccc4c3=O)C(=O)O)coc2c1` (racemic) [Example 104, (+/−)-4-(6-Isobutoxy-1-benzofur-3-yl)-4-oxo-2-[2-(4-oxo-1,2,3-benzotriazin-3(4H)-yl)ethyl]butanoic acid] the figure was 1.1 nM; with `CCCCOc1ccc2cc(C(=O)CC(CCn3nnc4ccccc4c3=O)C(=O)O)oc2c1` (single isomer, unassigned; (+)) [Example 63, (+)-4-(6-Butoxy-1-benzofur-2-yl)-4-oxo-2-[2-(4-oxo-1,2,3-benzotriazin-3(4H)-yl)ethyl]butanoic acid], 2.2 nM; with `O=C(CC(CCn1nnc2ccccc2c1=O)C(=O)O)c1coc2cc(OCC3CCCC3)ccc12` (racemic) [Example 78, (+/−)-4-[6-(Cyclopentylmethoxy)-1-benzofur-3-yl]-4-oxo-2-[2-(4-oxo-1,2,3-benzotriazin-3(4H)-yl)ethyl]butanoic acid], 2 nM. Regarding `O=C(CC(CCn1nnc2ccccc2c1=O)C(=O)O)c1noc2cc(OCCC3CCCC3)ccc12` (racemic) [Example 151, (+/−)-4-[6-(2-Cyclopentylethoxy)-1,2-benzoxazol-3-yl]-4-oxo-2-[2-(4-oxo-1,2,3-benzotriazin-3(4H)-yl)ethyl]butanoic acid], the IC50 turned out to be 0.27 nM. With `O=C(CC(CCn1nnc2ccccc2c1=O)C(=O)O)c1cc2cc(OCCCc3ccc(C(F)(F)F)cc3)ccc2o1` (racemic) [Example 42, (+/−)-4-Oxo-2-[2-(4-oxo-1,2,3-benzotriazin-3(4H)-yl)ethyl]-4-(5-{3-[4-(trifluoromethyl)phenyl]propoxy}-1-benzofur-2-yl)butanoic acid] the figure was 3.2 nM. With `O=C(CC(CCn1nnc2ccc(C(F)(F)F)cc2c1=O)C(=O)O)c1cc2ccc(OCC3CC3)cc2s1` (racemic) [Example 128, (+/−)-4-[6-(Cyclopropylmethoxy)-1-benzothiophen-2-yl]-4-oxo-2-{2-[4-oxo-6-(trifluoromethyl)-1,2,3-benzotriazin-3(4H)-yl]ethyl}butanoic acid] the figure was 1.1 nM; with `CC(C)CCCCOc1ccc2cc(C(=O)CC(CCn3nnc4ccccc4c3=O)C(=O)O)oc2c1` (racemic) [Example 72, (+/−)-4-{6-[(5-Methylhexyl)oxy]-1-benzofur-2-yl}-4-oxo-2-[2-(4-oxo-1,2,3-benzotriazin-3(4H)-yl)ethyl]butanoic acid], 3.1 nM. `O=C(CC(CCn1nnc2ccccc2c1=O)C(=O)O)c1noc2cc(OCc3ccc(F)cc3)ccc12` (single isomer, unassigned; enantiomer 1) [Example 137, 4-{6-[(4-Fluorobenzyl)oxy]-1,2-benzoxazol-3-yl}-4-oxo-2-[2-(4-oxo-1,2,3-benzotriazin-3(4H)-yl)ethyl]butanoic acid (enantiomer 1)]: half-maximal inhibition (IC50) was put at 35 nM. With `CC(C)COc1ccc2c(C(=O)CC(CCn3nnc4ccccc4c3=O)C(=O)O)coc2c1` (single isomer, unassigned; (-)) [Example 106, (−)-4-(6-Isobutoxy-1-benzofur-3-yl)-4-oxo-2-[2-(4-oxo-1,2,3-benzotriazin-3(4H)-yl)ethyl]butanoic acid] the figure was 31 nM; with `CC(C)COc1ccc2c(C(=O)CC(CCn3nnc4ccccc4c3=O)C(=O)O)coc2c1` (single isomer, unassigned; (+)) [Example 105, (+)-4-(6-Isobutoxy-1-benzofur-3-yl)-4-oxo-2-[2-(4-oxo-1,2,3-benzotriazin-3(4H)-yl)ethyl]butanoic acid], 0.21 nM.
